Test results as given in the NIST ThermoML archive (doi:10.1016/j.fluid.2015.04.017).
Numbers after ± are expanded uncertainties.

Experiment: xn = mol fraction of the nth substance listed
Settings: 101 kPa, Liquid; for viscosity: Concentric cylinders viscometry; for mass density: Vibrating tube method

CCOC(=O)C(C)O (stereo not drawn) [DL-ethyl lactate] + CCC(C)=O
Settings	mass density [kg/m3]	viscosity [mPa·s]
288.15 K, x1 = 0.0999	840.096 ± 0.15	0.5127 ± 0.0066
288.15 K, x1 = 0.1999	868.347 ± 0.15	0.6157 ± 0.0075
288.15 K, x1 = 0.3001	894.852 ± 0.15	0.7578 ± 0.0087
288.15 K, x1 = 0.4001	919.605 ± 0.15	0.9204 ± 0.01
288.15 K, x1 = 0.5	942.723 ± 0.16	1.128 ± 0.012
288.15 K, x1 = 0.5998	964.577 ± 0.17	1.384 ± 0.015
288.15 K, x1 = 0.6999	985.434 ± 0.18	1.707 ± 0.018
288.15 K, x1 = 0.8	1005.13 ± 0.2	2.113 ± 0.022
288.15 K, x1 = 0.9001	1023.3 ± 0.23	2.63 ± 0.027
288.15 K, x1 = 1	1039.28 ± 0.26	3.207 ± 0.033
293.15 K, x1 = 0.0999	834.849 ± 0.15	0.4886 ± 0.0064
293.15 K, x1 = 0.1999	863.068 ± 0.15	0.5824 ± 0.0072
293.15 K, x1 = 0.3001	889.537 ± 0.15	0.7086 ± 0.0083
293.15 K, x1 = 0.4001	914.27 ± 0.15	0.8532 ± 0.0095
293.15 K, x1 = 0.5	937.369 ± 0.16	1.035 ± 0.011
293.15 K, x1 = 0.5998	959.204 ± 0.17	1.254 ± 0.013
293.15 K, x1 = 0.6999	980.043 ± 0.18	1.527 ± 0.016
293.15 K, x1 = 0.8	999.721 ± 0.2	1.862 ± 0.019
293.15 K, x1 = 0.9001	1017.88 ± 0.23	2.287 ± 0.024
293.15 K, x1 = 1	1033.84 ± 0.26	2.752 ± 0.028
298.15 K, x1 = 0.0999	829.575 ± 0.15	0.4651 ± 0.0063
298.15 K, x1 = 0.1999	857.764 ± 0.15	0.5514 ± 0.0069
298.15 K, x1 = 0.3001	884.198 ± 0.15	0.6643 ± 0.0079
298.15 K, x1 = 0.4001	908.905 ± 0.15	0.7937 ± 0.009
298.15 K, x1 = 0.5	931.98 ± 0.16	0.9526 ± 0.01
298.15 K, x1 = 0.5998	953.795 ± 0.17	1.141 ± 0.012
298.15 K, x1 = 0.6999	974.621 ± 0.18	1.375 ± 0.015
298.15 K, x1 = 0.8	994.289 ± 0.2	1.658 ± 0.017
298.15 K, x1 = 0.9001	1012.45 ± 0.22	2.007 ± 0.021
298.15 K, x1 = 1	1028.39 ± 0.25	2.39 ± 0.025
303.15 K, x1 = 0.0999	824.277 ± 0.15	0.4429 ± 0.0061
303.15 K, x1 = 0.1999	852.434 ± 0.15	0.5214 ± 0.0067
303.15 K, x1 = 0.3001	878.836 ± 0.15	0.6229 ± 0.0075
303.15 K, x1 = 0.4001	903.522 ± 0.16	0.7397 ± 0.0086
303.15 K, x1 = 0.5	926.577 ± 0.16	0.8816 ± 0.0099
303.15 K, x1 = 0.5998	948.373 ± 0.17	1.046 ± 0.011
303.15 K, x1 = 0.6999	969.181 ± 0.18	1.248 ± 0.013
303.15 K, x1 = 0.8	988.835 ± 0.2	1.489 ± 0.016
303.15 K, x1 = 0.9001	1006.99 ± 0.22	1.783 ± 0.019
303.15 K, x1 = 1	1022.92 ± 0.25	2.097 ± 0.022
308.15 K, x1 = 0.0999	818.947 ± 0.15	0.4211 ± 0.0059
308.15 K, x1 = 0.1999	847.072 ± 0.15	0.4939 ± 0.0065
308.15 K, x1 = 0.3001	873.449 ± 0.15	0.5848 ± 0.0073
308.15 K, x1 = 0.4001	898.112 ± 0.16	0.6909 ± 0.0082
308.15 K, x1 = 0.5	921.146 ± 0.16	0.8175 ± 0.0093
308.15 K, x1 = 0.5998	942.923 ± 0.17	0.9624 ± 0.011
308.15 K, x1 = 0.6999	963.714 ± 0.18	1.138 ± 0.012
308.15 K, x1 = 0.8	983.356 ± 0.2	1.345 ± 0.014
308.15 K, x1 = 0.9001	1001.5 ± 0.21	1.595 ± 0.017
308.15 K, x1 = 1	1017.42 ± 0.24	1.858 ± 0.02
313.15 K, x1 = 0.0999	813.582 ± 0.15	0.4001 ± 0.0058
313.15 K, x1 = 0.1999	841.677 ± 0.15	0.4671 ± 0.0063
313.15 K, x1 = 0.3001	868.027 ± 0.15	0.5492 ± 0.007
313.15 K, x1 = 0.4001	892.67 ± 0.16	0.6463 ± 0.0078
313.15 K, x1 = 0.5	915.688 ± 0.16	0.7602 ± 0.0088
313.15 K, x1 = 0.5998	937.45 ± 0.17	0.8883 ± 0.01
313.15 K, x1 = 0.6999	958.226 ± 0.18	1.042 ± 0.011
313.15 K, x1 = 0.8	977.854 ± 0.2	1.222 ± 0.013
313.15 K, x1 = 0.9001	995.984 ± 0.21	1.436 ± 0.015
313.15 K, x1 = 1	1011.9 ± 0.24	1.658 ± 0.018
318.15 K, x1 = 0.0999	808.184 ± 0.16	0.3798 ± 0.0056
318.15 K, x1 = 0.1999	836.25 ± 0.16	0.4415 ± 0.0061
318.15 K, x1 = 0.3001	862.576 ± 0.16	0.5165 ± 0.0067
318.15 K, x1 = 0.4001	887.197 ± 0.16	0.6052 ± 0.0075
318.15 K, x1 = 0.5	910.198 ± 0.17	0.709 ± 0.0084
318.15 K, x1 = 0.5998	931.944 ± 0.17	0.8229 ± 0.0094
318.15 K, x1 = 0.6999	952.707 ± 0.18	0.9589 ± 0.011
318.15 K, x1 = 0.8	972.323 ± 0.2	1.116 ± 0.012
318.15 K, x1 = 0.9001	990.445 ± 0.21	1.3 ± 0.014
318.15 K, x1 = 1	1006.36 ± 0.23	1.491 ± 0.016
323.15 K, x1 = 0.0999	802.753 ± 0.16	0.3598 ± 0.0055
323.15 K, x1 = 0.1999	830.788 ± 0.16	0.4212 ± 0.0059
323.15 K, x1 = 0.3001	857.09 ± 0.16	0.4897 ± 0.0065
323.15 K, x1 = 0.4001	881.694 ± 0.16	0.5699 ± 0.0072
323.15 K, x1 = 0.5	904.683 ± 0.17	0.6649 ± 0.008
323.15 K, x1 = 0.5998	926.419 ± 0.17	0.7673 ± 0.0089
323.15 K, x1 = 0.6999	947.168 ± 0.18	0.8872 ± 0.01
323.15 K, x1 = 0.8	966.77 ± 0.2	1.028 ± 0.011
323.15 K, x1 = 0.9001	984.879 ± 0.21	1.193 ± 0.013
323.15 K, x1 = 1	1000.79 ± 0.23	1.349 ± 0.015
